Among the data in patent US9085576B2 (AMGEN INC., priority 2013, dated 2015) are IC50 values, retold here.

The target of experiment [1] is Beta Secretase enzyme (BACE) (Homo sapiens (Human), UniProt P56817). Nature of the experiment: In vitro enzymatic BACE FRET assay. The format is biochemical. The following applies: read-out: BACE1 Enzyme assay IC50.
For the next experiment, the target named is Cathepsin D (Cat D) (Homo sapiens (Human), UniProt P07339). Kind of experiment: In vitro enzymatic Cathepsin D (Cat D) FRET assay. The format is biochemical. The conditions noted are these: read-out: CatD IC50.
The target in another experiment is BACE (Homo sapiens (Human), UniProt P56817). Nature of the experiment: In vitro BACE cell-based assay (Aβ40 in conditioned medium, sandwich ELISA). Background: ELISA stands for enzyme-linked immunosorbent assay.

Structures are written as SMILES.

Sequence of BACE (P56817 46-501, species assumed): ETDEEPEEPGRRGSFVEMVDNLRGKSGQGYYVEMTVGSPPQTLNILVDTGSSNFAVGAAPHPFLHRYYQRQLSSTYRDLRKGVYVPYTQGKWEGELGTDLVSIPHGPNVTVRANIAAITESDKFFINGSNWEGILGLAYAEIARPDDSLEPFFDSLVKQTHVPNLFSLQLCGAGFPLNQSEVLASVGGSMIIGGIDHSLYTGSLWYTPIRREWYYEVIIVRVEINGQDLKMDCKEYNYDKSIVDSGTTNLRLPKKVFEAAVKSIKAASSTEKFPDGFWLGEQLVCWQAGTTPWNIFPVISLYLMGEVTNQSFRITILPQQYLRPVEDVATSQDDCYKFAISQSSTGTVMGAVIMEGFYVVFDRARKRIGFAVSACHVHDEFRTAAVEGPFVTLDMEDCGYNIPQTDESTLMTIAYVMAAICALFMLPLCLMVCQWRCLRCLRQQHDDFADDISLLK
Sequence of Beta Secretase enzyme (BACE) (P56817 46-501): as the sequence (P56817 46-501, species assumed) above
Sequence of Cathepsin D (Cat D) (P07339 65-412, species assumed): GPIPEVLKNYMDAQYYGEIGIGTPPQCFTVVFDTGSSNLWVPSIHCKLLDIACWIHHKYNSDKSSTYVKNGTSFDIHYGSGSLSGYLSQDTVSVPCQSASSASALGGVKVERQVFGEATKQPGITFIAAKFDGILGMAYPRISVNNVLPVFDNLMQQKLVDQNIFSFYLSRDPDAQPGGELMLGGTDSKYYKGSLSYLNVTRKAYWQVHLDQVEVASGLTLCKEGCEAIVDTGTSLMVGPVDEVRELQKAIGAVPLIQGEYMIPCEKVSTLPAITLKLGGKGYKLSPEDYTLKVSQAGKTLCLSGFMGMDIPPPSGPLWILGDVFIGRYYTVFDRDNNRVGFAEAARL

What is called IC50 is the concentration needed to halve the response being measured. Turning to `NC1=N[C@@](c2cc(NC(=O)c3cnc(OCC4CCOCC4)cn3)ccc2F)(C(F)F)[C@H]2C[C@H]2O1` [Example 412, N-(3-((1R,5S,6R)-3-amino-5-(difluoromethyl)-2-oxa-4-azabicyclo[4.1.0]hept-3-en-5-yl)-4-fluorophenyl)-5-((tetrahydro-2H-pyran-4-yl)methoxy)pyrazine-2-carboxamide], the IC50 in experiment [1] amounted to 0.129 µM; at Cathepsin D (Cat D), 640 µM; on BACE, 0.984 µM.
Take `C=CCOc1cnc(C(=O)Nc2ccc(F)c([C@@]3(C(F)F)N=C(N)O[C@@H]4C[C@@H]43)c2)cn1` [Example 414, 5-(allyloxy)-N-(3-((1R,5S,6R)-3-amino-5-(difluoromethyl)-2-oxa-4-azabicyclo[4.1.0]hept-3-en-5-yl)-4-fluorophenyl)pyrazine-2-carboxamide]: the IC50 is 0.048 µM in experiment [1], 924 µM at Cathepsin D (Cat D) and 0.146 µM at BACE.
Consider `NC1=N[C@@](c2cc(NC(=O)c3cnc(OCC4CCCCC4)cn3)ccc2F)(C(F)F)[C@H]2C[C@H]2O1` [Example 416, N-(3-((1R,5S,6R)-3-amino-5-(difluoromethyl)-2-oxa-4-azabicyclo[4.1.0]hept-3-en-5-yl)-4-fluorophenyl)-5-(cyclohexylmethoxy)pyrazine-2-carboxamide], for which the IC50 in experiment [1] amounted to 0.0121 µM; at Cathepsin D (Cat D), 228 µM; at BACE, 2.5 µM.
For `CCOc1cnc(C(=O)Nc2ccc(F)c([C@@]3(C(F)F)N=C(N)O[C@@H]4C[C@@H]43)c2)cn1` [Example 417, N-(3-((1R,5S,6R)-3-amino-5-(difluoromethyl)-2-oxa-4-azabicyclo[4.1.0]hept-3-en-5-yl)-4-fluorophenyl)-5-ethoxypyrazine-2-carboxamide] the same measures were 0.115 µM, 1470 µM and 0.0876 µM.
In the case of `NC1=N[C@@](c2cc(NC(=O)c3cnc(OCC4CCCC4)cn3)ccc2F)(C(F)F)[C@H]2C[C@H]2O1` [Example 418, N-(3-((1R,5S,6R)-3-amino-5-(difluoromethyl)-2-oxa-4-azabicyclo[4.1.0]hept-3-en-5-yl)-4-fluorophenyl)-5-(cyclopentylmethoxy)pyrazine-2-carboxamide], the IC50 in experiment [1] turned out to be 0.0261 µM; on Cathepsin D (Cat D), 891 µM; against BACE, 0.916 µM.
The corresponding values for `NC1=N[C@@](c2cc(NS(=O)(=O)c3ccc(Cl)cn3)ccc2F)(C(F)F)[C@H]2C[C@H]2O1` [Example 421, N-(3-((1R,5S,6R)-3-amino-5-(difluoromethyl)-2-oxa-4-azabicyclo[4.1.0]hept-3-en-5-yl)-4-fluorophenyl)-5-chloropyridine-2-sulfonamide] are 14.2 µM, 224 µM and > 15.6 µM.
Take `COC[C@H](C)NC(=O)c1ccc(F)c([C@]2(C(F)F)N=C(N)O[C@H]3C[C@H]32)c1` [Example 427, 3-((1S,5R,6S)-3-Amino-5-(difluoromethyl)-2-oxa-4-azabicyclo[4.1.0]hept-3-en-5-yl)-4-fluoro-N—((S)-1-methoxypropan-2-yl)benzamide]: the values for the IC50 (in experiment [1]; on Cathepsin D (Cat D); against BACE) were > 40 µM, > 400 µM and > 15.6 µM, respectively.
For `COC[C@H](C)NC(=O)c1ccc(F)c([C@@]2(C(F)F)N=C(N)O[C@@H]3C[C@@H]32)c1` [Example 428, 3-((1R,5S,6R)-3-Amino-5-(difluoromethyl)-2-oxa-4-azabicyclo[4.1.0]hept-3-en-5-yl)-4-fluoro-N—((S)-1-methoxypropan-2-yl)benzamide] the same measures were > 40 µM, 1520 µM and > 15.6 µM.
Consider `CC#Cc1cncc(-c2ccc(F)c([C@@]3(C(F)F)N=C(N)O[C@@H]4C[C@@H]43)c2)c1` [Example 429, (1R,5S,6R)-5-(difluoromethyl)-5-(2-fluoro-5-(5-(prop-1-yn-1-yl)pyridin-3-yl)phenyl)-2-oxa-4-azabicyclo[4.1.0]hept-3-en-3-amine], for which the IC50 in experiment [1] turned out to be 1.05 µM; at Cathepsin D (Cat D) it was 72.9 µM; against BACE, 3.36 µM.
The corresponding values for `CC#Cc1cncc(-c2ccc(F)c([C@]3(C(F)F)N=C(N)O[C@H]4C[C@H]43)c2)c1` [Example 430] are > 40 µM, 1020 µM and > 15.6 µM.
Take `CC#Cc1cnn(-c2ccc(F)c([C@@]3(C(F)F)N=C(N)O[C@@H]4C[C@@H]43)c2)c1` [Example 434, (1R,5S,6R)-5-(difluoromethyl)-5-(2-fluoro-5-(4-(prop-1-yn-1-yl)-1H pyrazol-1-yl)phenyl)-2-oxa-4-azabicyclo[4.1.0]hept-3-en-3-amine]: the IC50 was found to be 1.21 µM in experiment [1], 386 µM at Cathepsin D (Cat D) and 0.561 µM at BACE.
For the compound `NC1=N[C@@](c2cc(N3Cc4cc(Cl)cnc4C3=O)ccc2F)(C(F)F)[C@H]2C[C@H]2O1` [Example 437, 6-(3-((1R,5S,6R)-3-amino-5-(difluoromethyl)-2-oxa-4-azabicyclo[4.1.0]hept-3-en-5-yl)-4-fluorophenyl)-3-chloro-5H-pyrrolo[3,4-b]pyridin-7(6H)-one], the IC50 is 2.19 µM in experiment [1], 659 µM at Cathepsin D (Cat D) and 0.384 µM against BACE.
For `COc1cnc(C(=O)Nc2cccc([C@@]3(C(F)F)N=C(N)O[C@@H]4C[C@@H]43)c2)cn1` [Example 438, N-(3-((1R,5S,6R)-3-amino-5-(difluoromethyl)-2-oxa-4-azabicyclo[4.1.0]hept-3-en-5-yl)phenyl)-5-methoxypyrazine-2-carboxamide], the values for the IC50 (in experiment [1]; on Cathepsin D (Cat D); against BACE) were 0.5 µM, 793 µM and 0.126 µM, respectively.
The corresponding values for `NC1=N[C@@](c2cc(-c3nnc(-c4ccc(F)cc4)[nH]3)ccc2F)(C(F)F)[C@H]2C[C@H]2O1` [Example 440, (1R,5S,6R)-5-(difluoromethyl)-5-(2-fluoro-5-(5-(4-fluorophenyl)-4H-1,2,4-triazol-3-yl)phenyl)-2-oxa-4-azabicyclo[4.1.0]hept-3-en-3-amine] are > 40 µM, 250 µM and > 15.6 µM.
For `NC1=N[C@](CF)(c2cc(NC(=O)c3ncc(Cl)cc3CF)ccc2Cl)[C@H]2C[C@H]2O1` [Example 441, N-(3-((1R,5S,6R)-3-amino-5-(fluoromethyl)-2-oxa-4-azabicyclo[4.1.0]hept-3-en-5-yl)-4-chlorophenyl)-5-chloro-3-(fluoromethyl) picolinamide] the same measures were 0.0252 µM, 444 µM and 0.0159 µM.
The corresponding values for `NC1=N[C@](CF)(c2cc(NC(=O)c3ncc(Cl)cc3F)ccc2Cl)[C@H]2C[C@H]2O1` [Example 442, N-(3-((1R,5S,6R)-3-amino-5-(fluoromethyl)-2-oxa-4-azabicyclo[4.1.0]hept-3-en-5-yl)-4-chlorophenyl)-5-chloro-3-fluoropicolinamide] are 0.0544 µM, 1140 µM and 0.0134 µM.
Regarding `Cc1cc(Cl)cnc1C(=O)Nc1ccc(Cl)c([C@@]2(CF)N=C(N)O[C@@H]3C[C@@H]32)c1` [Example 443, N-(3-((1R,5S,6R)-3-amino-5-(fluoromethyl)-2-oxa-4-azabicyclo[4.1.0]hept-3-en-5-yl)-4-chlorophenyl)-5-chloro-3-methylpicolinamide], the IC50 was found to be 0.0373 µM in experiment [1], 517 µM at Cathepsin D (Cat D) and 0.0136 µM at BACE.
As to `NC1=N[C@](CF)(c2cc(NC(=O)c3ccc(F)cn3)ccc2Cl)[C@H]2C[C@H]2O1` [Example 445, N-(3-((1R,5S,6R)-3-amino-5-(fluoromethyl)-2-oxa-4-azabicyclo[4.1.0]hept-3-en-5-yl)-4-chlorophenyl)-5-fluoropicolinamide], the values for the IC50 (in experiment [1]; on Cathepsin D (Cat D); on BACE) were 0.29 µM, 1270 µM and 0.031 µM, respectively.
For `N#Cc1cnc2c(Nc3ccc(F)c([C@@]4(C(F)F)N=C(N)O[C@@H]5C[C@@H]54)c3)nccc2c1` [Example 446, 8-((3-((1R,5S,6R)-3-amino-5-(difluoromethyl)-2-oxa-4-azabicyclo[4.1.0]hept-3-en-5-yl)-4-fluorophenyl)amino)-1,7-naphthyridine-3-carbonitrile] the same measures were 0.0558 µM, 658 µM and 0.107 µM.
In the case of `COc1cnc2c(Nc3ccc(F)c([C@@]4(C(F)F)N=C(N)O[C@@H]5C[C@@H]54)c3)nccc2n1` [Example 447, (1R,5S,6R)-5-(difluoromethyl)-5-(2-fluoro-5-((2-methoxypyrido[3,4-b]pyrazin-5-yl)amino)phenyl)-2-oxa-4-azabicyclo[4.1.0]hept-3-en-3-amine], the IC50 in experiment [1] turned out to be 0.139 µM; at Cathepsin D (Cat D) it was 501 µM; on BACE, 0.167 µM.
For `COc1cnc2c(Nc3ccc(F)c([C@@]4(C(F)F)N=C(N)O[C@@H]5C[C@@H]54)c3)ncc(F)c2c1` [Example 448, (1R,5S,6R)-5-(difluoromethyl)-5-(2-fluoro-5-((5-fluoro-3-methoxy-1,7-naphthyridin-8-yl)amino)phenyl)-2-oxa-4-azabicyclo[4.1.0]hept-3-en-3-amine] the same measures were 0.117 µM, 169 µM and 0.0863 µM.
Consider `NC1=N[C@@](c2cc(Nc3ncnc4cc(C(F)(F)F)cnc34)ccc2F)(C(F)F)[C@H]2C[C@H]2O1` [Example 449, (1R,5S,6R)-5-(difluoromethyl)-5-(2-fluoro-5-((7-(trifluoromethyl)pyrido[3,2-d]pyrimidin-4-yl)amino)phenyl)-2-oxa-4-azabicyclo[4.1.0]hept-3-en-3-amine], for which the IC50 in experiment [1] was found to be 0.124 µM; on Cathepsin D (Cat D), 79.4 µM; against BACE, 0.268 µM.
Regarding `N#Cc1cnc(C(=O)Nc2ccc(Cl)c([C@@]3(CF)N=C(N)O[C@@H]4C[C@@H]43)c2)c(F)c1` [Example 450, N-(3-((1R,5S,6R)-3-amino-5-(fluoromethyl)-2-oxa-4-azabicyclo[4.1.0]hept-3-en-5-yl)-4-chlorophenyl)-5-cyano-3-fluoropicolinamide], the IC50 in experiment [1] was 0.0503 µM; at Cathepsin D (Cat D) it was > 400 µM; against BACE it was 0.00817 µM.
